We go through three molecules from patent US9956232B2, “Dialkyl-phosphinoyl-alkane (Dapa) compounds and compositions for treatment of lower gastrointestinal tract disorders” (priority 2016, dated 2018).

The test system of experiment [1] is pentobarbital-anesthetized male rats. The experiment can be described thus: Shaking frequency (wet-dog shaking) of anesthetized rats after intravenous, perioral or topical delivery. The note with it: anesthetized rat. The class given is in vivo. How it is done:
In experiments conducted here, test compounds were evaluated for “wet-dog shaking” as a model of cooling sensation. Using a standardized procedure, test compounds were compared in their ability to stimulate the shaking response by intravenous injection into a cannulated femoral vein, by perioral administration, and by topical delivery to the abdominal skin.
Each rat was given two injections with a 30 min interval. […] Shaking frequency was counted for 15 min after injection. Shaking was observed immediately after i.v. injection and at least 78% of the total shakes occurred in the first 5 min after injection. The response in the second trial was at least as robust in the first trial, showing the lack of desensitization.
Test compounds were dissolved in saline and administered by oral gavage to pentobarbital-anesthetized male albino rats at 20 mg/kg at a volume of 0.1 mL/100 g body weight [N=3 to 4 rats per compound]. Shaking was counted over a 40 min period and recorded at 10-min intervals.
For topical application of DAPA, the abdominal skin of the anesthetized rat was shaved and 20 μL of the pure DAPA was applied with a micropipette onto a ˜1 cm diameter circle of skin, enclosed with a ring of cream [Baby cream “Nevskaya kosmetika Detskyi” Nevskaya Kosmetika Inc., Saint-Petersburg 192029], as shown in FIG. 5D. The number of shakes was counted for 1 hr after application.

In experiment [2] the target is T1, TRPM8 (Homo sapiens, UniProt Q7Z2W7). As to the kind of experiment: TRPM8 receptor agonist assay (Fluo-8 calcium, FLIPR). Details: host or cells: CHO cells, stably transfected. Format: cell-based. How it is done: Compounds were tested on (CHO) cells stably transfected with human TRPM8 cDNAs using a Fluo-8 calcium kit and a Fluorescence Imaging Plate Reader ([…]™) instrument. […] Solutions were prepared by diluting stock solutions in a HEPES-buffered physiological saline (HBPS) solution. Test compound and control formulations were loaded in polypropylene or glass-lined 384-well plates, and placed into the FLIPR instrument (Molecular Devices Corporation, Union City, Calif., USA). Each was tested at 8 concentrations with n=4 replicates per determination. […] For […]™ assay, cells were plated in 384-well black wall, flat clear-bottom microtiter plates (Type: BD Biocoat Poly-D-Lysine Multiwell Cell Culture Plate) at approximately 30,000 cells per well. Cells were incubated at 37° C. overnight to reach a near confluent monolayer appropriate for use in a fluorescence assay. The test procedure was to remove the growth media and to add 40 μL of HBPS containing Fluo-8 for 30 minutes at 37° C. 10 μL of test compound, vehicle, or control solutions in HBPS were added to each well and read for 4 minutes. Concentration-response data were analysed via the FLIPR Control software that is supplied with the FLIPR System (MDS-AT) and fitted to a Hill equation.
Target sequence in this assay (Q7Z2W7 whole entry): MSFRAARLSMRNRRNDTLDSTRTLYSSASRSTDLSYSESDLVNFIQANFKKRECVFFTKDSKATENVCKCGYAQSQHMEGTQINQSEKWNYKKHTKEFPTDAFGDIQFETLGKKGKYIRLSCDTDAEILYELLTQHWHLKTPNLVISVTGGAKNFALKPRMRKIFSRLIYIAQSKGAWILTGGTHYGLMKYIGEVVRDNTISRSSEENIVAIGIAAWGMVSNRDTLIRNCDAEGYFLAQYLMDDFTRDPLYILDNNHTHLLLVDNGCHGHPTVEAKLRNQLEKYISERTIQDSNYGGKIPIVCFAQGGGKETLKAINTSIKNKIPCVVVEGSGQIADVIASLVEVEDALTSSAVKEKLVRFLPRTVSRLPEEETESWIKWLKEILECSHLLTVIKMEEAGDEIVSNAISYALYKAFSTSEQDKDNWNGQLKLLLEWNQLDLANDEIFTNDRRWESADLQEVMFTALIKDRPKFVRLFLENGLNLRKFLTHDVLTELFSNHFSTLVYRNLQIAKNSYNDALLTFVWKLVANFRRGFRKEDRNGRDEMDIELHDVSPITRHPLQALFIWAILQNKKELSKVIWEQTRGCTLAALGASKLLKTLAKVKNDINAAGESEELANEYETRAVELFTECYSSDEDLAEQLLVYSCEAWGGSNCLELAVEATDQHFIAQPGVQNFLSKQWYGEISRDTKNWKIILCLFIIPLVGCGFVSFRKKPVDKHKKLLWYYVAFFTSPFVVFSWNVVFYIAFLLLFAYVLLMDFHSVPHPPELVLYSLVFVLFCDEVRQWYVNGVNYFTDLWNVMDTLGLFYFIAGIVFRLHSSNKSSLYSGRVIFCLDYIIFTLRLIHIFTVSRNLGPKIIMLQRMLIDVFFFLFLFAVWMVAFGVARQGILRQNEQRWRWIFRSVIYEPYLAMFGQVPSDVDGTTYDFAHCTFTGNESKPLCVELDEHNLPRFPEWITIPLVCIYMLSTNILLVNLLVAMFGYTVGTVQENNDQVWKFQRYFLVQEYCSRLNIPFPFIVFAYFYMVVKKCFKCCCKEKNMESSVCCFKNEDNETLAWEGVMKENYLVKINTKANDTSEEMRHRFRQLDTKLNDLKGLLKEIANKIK

The target of experiment [3] is TRPV1 (Homo sapiens, UniProt Q8NER1). The experiment can be described thus: TRPV1 calcium imaging (Fura-2AM) in transfected KNRK cells. Format: cell-based. More on the design: expressed in transfected cells; host or cells: KNRK cells, transient transfection with Lipofectamine 2000. The following applies: KNRK cells transiently transfected with TRPV1. The protocol:
(§1) DAPA-1-9 was tested on TRPV1 channels and TRPA1 channels expressed in KNRK cells (Kirsten murine sarcoma virus transformed kidney epithelial cells). KNRK cells were cultured as a monolayer and maintained in DMEM (Life Technologies), supplemented with 10% FBS (Life Technologies), 100 units/ml penicillin and 100 μg/ml streptomycin, in an incubator of 5% CO2 at 37° C. After suspension, the cells were coated on cover slips for 12 hours, then transiently transfected with cDNA (pc3.1 DNA) for TRPV1 or TRPA1 with Lipofectamine 2000 (Invitrogen) for 24 hr, and loaded with Fura-2AM™ (Molecular Probes) for 40 min at 37° C. After washing and recovery, KNRK cells were imaged at 340 and 380 nm excitation to detect free calcium influx. An increase of 50% of the 340/380 ratio was considered as the response threshold which were measured under blinded conditions for plasmids. Compounds were applied to the bath and calcium response was acquired by an inverted Nikon fluorescence microscope with a CoolSnap HQ2 CCD camera (Photometrics, Tucson, Ariz.). Data were quantified offline with the Nikon-NIS program.

Experiment [4] has as its target TRPA1 (Homo sapiens, UniProt O75762). As to the kind of experiment: TRPA1 calcium imaging (Fura-2AM) in transfected KNRK cells. The following applies: KNRK cells transiently transfected with TRPA1. Details: expressed in transfected cells; host or cells: KNRK cells, transient transfection with Lipofectamine 2000. Format: cell-based. The protocol: as §1
Experiment [5] deals with T1, TRPM8. As to the kind of experiment: TRPM8 assay of DIPA-1-10 at King's College, different assay conditions. The class given is cell-based. An excerpt:
[Table 2] […] The data for DIPA-1-10 is not included in the Table 2 or Figure because it was obtained under different assay conditions.
Target sequence in this assay (Q7Z2W7 whole entry, species assumed): as the sequence (Q7Z2W7 whole entry) above

For experiment [6], the target named is T1, TRPM8. The note with it: literature; cited from earlier work.
Target sequence in this assay (Q7Z2W7 whole entry, species assumed): as the sequence (Q7Z2W7 whole entry) above

SMILES strings stand for the structures.

Chain of TRPA1 (O75762 whole entry, species assumed): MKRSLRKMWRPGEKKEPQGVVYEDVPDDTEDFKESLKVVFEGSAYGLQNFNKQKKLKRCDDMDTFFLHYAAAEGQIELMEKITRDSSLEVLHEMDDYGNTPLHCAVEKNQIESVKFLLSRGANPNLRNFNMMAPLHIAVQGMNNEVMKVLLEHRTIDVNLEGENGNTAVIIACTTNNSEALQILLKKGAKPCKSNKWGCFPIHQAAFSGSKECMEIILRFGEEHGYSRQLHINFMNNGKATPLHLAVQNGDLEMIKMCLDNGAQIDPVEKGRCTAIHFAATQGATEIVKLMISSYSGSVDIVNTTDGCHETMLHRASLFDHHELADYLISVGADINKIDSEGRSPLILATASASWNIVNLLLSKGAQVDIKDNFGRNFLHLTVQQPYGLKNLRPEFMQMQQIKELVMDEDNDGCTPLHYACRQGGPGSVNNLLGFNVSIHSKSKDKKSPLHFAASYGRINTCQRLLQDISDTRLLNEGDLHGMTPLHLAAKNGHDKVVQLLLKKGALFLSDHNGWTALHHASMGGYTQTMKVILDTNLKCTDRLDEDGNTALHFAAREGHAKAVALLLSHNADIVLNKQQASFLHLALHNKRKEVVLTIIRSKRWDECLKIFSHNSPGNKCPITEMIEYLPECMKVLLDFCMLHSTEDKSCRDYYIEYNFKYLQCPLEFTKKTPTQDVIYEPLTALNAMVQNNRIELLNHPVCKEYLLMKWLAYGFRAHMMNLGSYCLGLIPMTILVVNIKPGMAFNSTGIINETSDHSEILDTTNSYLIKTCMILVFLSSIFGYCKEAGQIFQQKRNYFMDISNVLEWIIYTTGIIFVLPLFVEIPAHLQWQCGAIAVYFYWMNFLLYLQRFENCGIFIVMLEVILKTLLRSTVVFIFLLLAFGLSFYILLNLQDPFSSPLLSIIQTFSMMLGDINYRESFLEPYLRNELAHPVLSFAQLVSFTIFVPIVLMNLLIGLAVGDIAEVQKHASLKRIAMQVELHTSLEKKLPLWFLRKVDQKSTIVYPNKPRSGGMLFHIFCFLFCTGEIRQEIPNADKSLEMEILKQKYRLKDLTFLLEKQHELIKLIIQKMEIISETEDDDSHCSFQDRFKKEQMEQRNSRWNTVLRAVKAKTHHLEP
Chain of TRPV1 (Q8NER1 whole entry, species assumed): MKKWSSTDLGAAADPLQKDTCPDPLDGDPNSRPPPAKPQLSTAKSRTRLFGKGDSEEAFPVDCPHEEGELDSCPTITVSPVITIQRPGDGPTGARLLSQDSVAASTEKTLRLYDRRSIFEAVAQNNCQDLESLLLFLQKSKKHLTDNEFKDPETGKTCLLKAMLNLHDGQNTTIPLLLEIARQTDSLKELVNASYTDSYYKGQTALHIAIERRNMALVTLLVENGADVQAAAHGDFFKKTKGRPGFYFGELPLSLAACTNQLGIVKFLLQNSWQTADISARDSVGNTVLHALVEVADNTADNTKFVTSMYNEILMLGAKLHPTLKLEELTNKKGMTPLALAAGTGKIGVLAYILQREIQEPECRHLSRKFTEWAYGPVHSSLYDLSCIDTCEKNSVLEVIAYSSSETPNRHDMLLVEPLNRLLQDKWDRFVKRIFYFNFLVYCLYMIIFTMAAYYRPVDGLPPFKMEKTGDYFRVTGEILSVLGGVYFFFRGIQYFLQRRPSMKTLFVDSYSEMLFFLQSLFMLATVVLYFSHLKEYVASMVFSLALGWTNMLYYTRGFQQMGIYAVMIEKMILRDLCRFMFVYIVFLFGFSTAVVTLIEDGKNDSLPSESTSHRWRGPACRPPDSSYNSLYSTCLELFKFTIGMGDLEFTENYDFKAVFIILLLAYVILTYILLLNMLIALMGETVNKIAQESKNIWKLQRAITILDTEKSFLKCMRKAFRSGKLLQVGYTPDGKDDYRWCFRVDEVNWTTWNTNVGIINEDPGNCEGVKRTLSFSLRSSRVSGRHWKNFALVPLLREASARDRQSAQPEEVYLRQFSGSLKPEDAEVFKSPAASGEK

`CCCCCCCCCP(=O)(C(C)C)C(C)C` [DIPA-1-9, 1-[Diisopropyl-phosphinoyl]-nonane]: in experiment [1] (2 mg/kg i.v., 2nd trial, counted for 15 min), the “Shaking frequency, Intravenous” value is reported as 3 ± 1 shakes. The “Shaking frequency, Perioral” value in experiment [1] (20 mg/kg by oral gavage, counted for 40 min) was found to be 0 shakes. In addition, the “Shaking frequency, Topical” value in experiment [1] (20 μL pure compound on shaved abdominal skin, counted for 1 hr) is recorded as 0 shakes. Moreover, in experiment [2] (TRPM8 relative potency as repeated in Table 4), the “×Menthol” value stood at 4.0. Besides, in experiment [2] (relative to menthol = 1.0 (Table 2)), the “Relative Potency” value worked out at 4.0. The “agonist or antagonist activities against TRPV1” value in experiment [3] is listed as “devoid of agonist or antagonist activities”. Moreover, the “agonist or antagonist activities against TRPA1” value in experiment [4] is on record as “devoid of agonist or antagonist activities”.
Regarding `CCCCCCCCCCP(=O)(C(C)C)C(C)C` [DIPA-1-10], in experiment [5], the “potency × menthol” value was found to be 1.7 × and the “times less active than DIPA-1-9” value was 2.4 ×.
On to `O=C1NC(c2cccc([N+](=O)[O-])c2)=CCN1c1ccccc1O` [Icilin], for which the “TRPM8 agonist potency × menthol” value in experiment [6] was 200 ×.
